Measured values published in patent US5079263A, “Manumycin derivatives and the use thereof” (Behringwerke Aktiengesellschaft, priority 1987, dated 1992).

Target: T1, PMN elastase (Homo sapiens, UniProt P08246)
T1 construct: The elastase was isolated from human leukocytes; from tissue; host or cells: human leukocytes
T1 sequence (P08246 30-247 limits assumed): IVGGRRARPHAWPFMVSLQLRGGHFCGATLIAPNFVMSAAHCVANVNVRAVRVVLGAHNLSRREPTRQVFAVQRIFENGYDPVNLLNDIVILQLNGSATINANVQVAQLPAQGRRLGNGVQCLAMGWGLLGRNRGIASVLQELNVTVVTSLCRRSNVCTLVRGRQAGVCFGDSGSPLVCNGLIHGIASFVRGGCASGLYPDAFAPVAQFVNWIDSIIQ
Assay: Assay for Elastase from Polymorphonuclear Granulocytes (PMN Elastase)
Format: biochemical
Design: key to inhibiting effect in PMN elastase assay (inactive): Substances which showed no inhibiting effect at the maximum concentration of 100 μg/ml were defined as inactive
Settings: for IC50: 1 hour preincubation with enzyme, substrate MeO-Suc-Ala-Ala-Pro-Val-pNA, 15 minutes, 405 nm, maximum 100 μg/ml, read-out: IC50 (inhibiting effect on PMN elastase) (converted); for inhibiting effect on PMN elastase, comparison in words: compared with manumycin / compounds (1) to (3)
Description: The elastase was isolated from human leukocytes by the method described by Engelbrecht et al. (Hoppe-Seyler's Physiol. Chem. 363, pp. 305-315, 1982). The substrate used was the MeO-Suc-[…] (Calbiochem) described by Nakajima et al. (J. Biol. Chem. 254, pp. 4027-4032, 1979). The Liberation of the p-nitroaniline from the substrate in 15 minutes was measured as the increase in absorption at 405 nm in a spectrophotometer. This absorption was defined as 100% activity of the enzyme PMN elastase. The inhibitors of PMN elastase were preincubated in increasing concentrations up to a maximum of 100 μg/ml with the enzyme for 1 hour, and the enzyme reaction was started with the substrate. The IC50 was defined as that inhibitor concentration which inhibits 50% of the enzyme activity.

Row | Compound | inhibition of leukocyte elastase, in words | IC50 [µM] | inhibiting effect in PMN elastase assay (inactive) (maximum concentration 100 μg/ml, "--" in Table 2) | inhibiting effect on PMN elastase, comparison in words
1 | CCCC[C@@H](C)/C=C(C)/C=C(\C)C(=O)Nc1cc(/C=C/C=C/C=C/C(=O)NC2=C(O)CCC2=O)c(O)cc1O [Compound (1)] | inhibit leukocyte elastase | 4.68 | – | –
2 | CCCC[C@@H](C)/C=C(C)/C=C(\C)C(=O)Nc1cc(/C=C/C=C/C=C/C(=O)NC2=C(O)CCC2=O)ccc1O [Compound (2)] | inhibit leukocyte elastase | 5.98 | – | –
3 | CCCCC(C)C=C(C)C=C(C)C(=O)NC1=CC(O)(C=CC=CC=CC(=O)NC2=C(O)CCC2=O)C2OC2C1=O (stereo not drawn) [Manumycin, manumycin] | – | 7.99 | – | comparable to that of the compounds (1) to (3)

Second part, led by results:

Row | inhibition of leukocyte elastase, in words | IC50 [µM] | inhibiting effect in PMN elastase assay (inactive) (maximum concentration 100 μg/ml, "--" in Table 2) | Compound | inhibiting effect on PMN elastase, comparison in words
4 | inhibit leukocyte elastase | 7.16 | – | CCCC[C@@H](C)/C=C(C)/C=C(\C)C(=O)Nc1cccc(/C=C/C=C/C=C/C(=O)NC2=C(O)CCC2=O)c1 [Compound (3)] | –
5 | – | – | inactive | Nc1cccc(/C=C/C=C/C=C/C(=O)NC2=C(O)CCC2=O)c1 [Compound (4)] | –
6 | inhibit leukocyte elastase | 135 | – | Nc1ccc(/C=C/C=C/C=C/C(=O)NC2=C(O)CCC2=O)cc1 [Compound (5)] | distinctly weaker inhibiting effect
